Assay results as given in PMC10305039, “Triphenylphosphonium (TPP)-Conjugated Quinolone Analogs Displayed Significantly Enhanced Fungicidal Activity Superior to Its Parent Molecule” (Journal of Fungi, 2023).
pIC50: −log10 of the molar value.

System: T1, cytochrome bc1 complex (complex III) of P. capsici
T1 construct: gene cob; native complex III in freeze-thawed hyphal mitochondria isolated by differential centrifugation; not purified; with Cytochrome c1, heme protein, mitochondrial; Cytochrome b-c1 complex subunit Rieske, mitochondrial
Experiment: complex III activity assay kit (Genmed GMS50009), hyphal mitochondria
Assay type: biochemical, Phytophthora capsici
Details: freeze-thawed mitochondria; Qi site proposed, not shown

Cc1cc(=O)c2ccccc2n1OC(=O)CCCCCCCCCC[P+](c1ccccc1)(c1ccccc1)c1ccccc1 [mitoQNO11]
pIC50: 5.48
